The text below walks through data of US20040167097A1, “EPO D + 5-FU/gemcitabine” (priority 2002, published 2004).

A short description of series [1]: Pharmacokinetics after infusion. Format: in vivo. The source says: In general, the pharmacokinetics are favorable. […] This is somewhat higher on average than the values for paclitaxel which are 140±70 l.
The subject of series [2] is paclitaxel-sensitive and paclitaxel-resistant cell lines and xenographs. As to conditions: cited from earlier work.
The subject of series [3] is tumor. To be noted: mice; Chou, et al. 2001; cited from earlier work.
In series [4] the test system is thymidine phosphorylase. The series can be described thus: Production of thymidine phosphorylase in tumor cells. It is filed as cell-based. As to conditions: some tumor cells; preliminary experiments.
Description: The data from each of the combination analyses was analyzed using [sequence] software (Biosoft, Cambridge, UK), which determined a combination index (“CI”) value for each combination in each of the three cell lines examined.
The conditions of series [5]: comparison value for paclitaxel; cited from earlier work.

Read-outs that look alike come from different tables or passages of the source.

Consider `C/C1=C/C[C@@H](/C(C)=C/c2csc(C)n2)OC(=O)C[C@H](O)C(C)(C)C(=O)[C@H](C)[C@@H](O)[C@@H](C)CCC1` [epothilone D, 12,13-deoxyepothilone B], for which the “dependence of AUC on dosage” value in series [1] (from 9 to 150 mg/m^2) is recorded as “linear”. In addition, in series [1] (in vivo), the “dose dependence of pharmacokinetics” value is given as “not dose-dependent” and the “pharmacokinetic parameters, second infusion as compared to first infusion” value is given as “do not change”. In addition, in series [1] (infusion), the “half-life, mean value” was determined as 9.6 ± 2.2 h and the “volume of distribution (Vz)” value was 172 ± 74 L. The antitumor efficacy result in series [2] is “has antitumor efficacy”. Also, the antitumor effects entry in series [3] is given as “dramatic antitumor effects”. For the same compound, the “production of thymidine phosphorylase” value in series [4] was “upregulate”.

With `CC(=O)O[C@H]1C(=O)[C@@]2(C)[C@H]([C@H](OC(=O)c3ccccc3)[C@]3(O)C[C@H](OC(=O)[C@H](O)[C@@H](NC(=O)c4ccccc4)c4ccccc4)C(C)=C1C3(C)C)[C@]1(OC(C)=O)CO[C@@H]1C[C@@H]2O` [paclitaxel], the “volume of distribution (Vz)” value in series [5] was 140 ± 70 L.
